Laboratory results: ChEMBL document CHEMBL5380860, “Design, Synthesis, and Antitumor Activity of Potent and Selective EGFR L858R/T790M Inhibitors and Identification of a Combination Therapy to Overcome Acquired Resistance in Models of Non-small-cell Lung Cancer” (J Med Chem, 2023)

Legend:
[1] = Cytotoxicity against human A549 cells harboring wild type EGFR assessed as reduction in cell viability measured after 72 hrs by MTT assay; type: toxicity, cell-based
[2] = Selectivity ratio of IC50 for cytotoxicity against human A549 cells harboring wild type EGFR to IC50 for antiproliferative activity against human NCI-H1975 cells harboring EGFR L858R/T790M mutant; type: toxicity, cell-based; settings: read-out: Ratio IC50
NCI-H1975 = test: Antiproliferative activity against human NCI-H1975 cells harboring EGFR L858R/T790M mutant assessed as reduction in cell viability measured after 72 hrs by MTT assay; type: functional, cell-based; settings: NCI-H1975, 72 h
[3] = Selectivity ratio of IC50 for cytotoxicity against human A-431 cells harboring wild type EGFR to IC50 for antiproliferative activity against human NCI-H1975 cells harboring EGFR L858R/T790M mutant; type: toxicity, cell-based; settings: read-out: Ratio IC50
[4] = Cytotoxicity against human A-431 cells harboring wild type EGFR assessed as reduction in cell viability measured after 72 hrs by MTT assay; type: toxicity, cell-based
HCC827 = test: Antiproliferative activity against human HCC827 cells harboring EGFR exon del 19 mutant assessed as reduction in cell viability measured after 72 hrs by MTT assay; type: functional, cell-based; settings: HCC827, 72 h
[5] = target: Epidermal growth factor receptor (Homo sapiens, UniProt P00533, L858R/T790M); test: Inhibition of human partial length EGFR (R669 to V1011 residues) L858R/T790M mutant expressed in mammalian expression system by KINOMEscan analysis
[6] = target: Epidermal growth factor receptor (Homo sapiens, UniProt P00533); test: Inhibition of human wild type partial length EGFR (R669 to V1011 residues) expressed in bacterial expression system by KINOMEscan analysis; type: toxicity
Sequence of Epidermal growth factor receptor (Homo sapiens, UniProt P00533) (P00533 whole entry, the tested form may be a part): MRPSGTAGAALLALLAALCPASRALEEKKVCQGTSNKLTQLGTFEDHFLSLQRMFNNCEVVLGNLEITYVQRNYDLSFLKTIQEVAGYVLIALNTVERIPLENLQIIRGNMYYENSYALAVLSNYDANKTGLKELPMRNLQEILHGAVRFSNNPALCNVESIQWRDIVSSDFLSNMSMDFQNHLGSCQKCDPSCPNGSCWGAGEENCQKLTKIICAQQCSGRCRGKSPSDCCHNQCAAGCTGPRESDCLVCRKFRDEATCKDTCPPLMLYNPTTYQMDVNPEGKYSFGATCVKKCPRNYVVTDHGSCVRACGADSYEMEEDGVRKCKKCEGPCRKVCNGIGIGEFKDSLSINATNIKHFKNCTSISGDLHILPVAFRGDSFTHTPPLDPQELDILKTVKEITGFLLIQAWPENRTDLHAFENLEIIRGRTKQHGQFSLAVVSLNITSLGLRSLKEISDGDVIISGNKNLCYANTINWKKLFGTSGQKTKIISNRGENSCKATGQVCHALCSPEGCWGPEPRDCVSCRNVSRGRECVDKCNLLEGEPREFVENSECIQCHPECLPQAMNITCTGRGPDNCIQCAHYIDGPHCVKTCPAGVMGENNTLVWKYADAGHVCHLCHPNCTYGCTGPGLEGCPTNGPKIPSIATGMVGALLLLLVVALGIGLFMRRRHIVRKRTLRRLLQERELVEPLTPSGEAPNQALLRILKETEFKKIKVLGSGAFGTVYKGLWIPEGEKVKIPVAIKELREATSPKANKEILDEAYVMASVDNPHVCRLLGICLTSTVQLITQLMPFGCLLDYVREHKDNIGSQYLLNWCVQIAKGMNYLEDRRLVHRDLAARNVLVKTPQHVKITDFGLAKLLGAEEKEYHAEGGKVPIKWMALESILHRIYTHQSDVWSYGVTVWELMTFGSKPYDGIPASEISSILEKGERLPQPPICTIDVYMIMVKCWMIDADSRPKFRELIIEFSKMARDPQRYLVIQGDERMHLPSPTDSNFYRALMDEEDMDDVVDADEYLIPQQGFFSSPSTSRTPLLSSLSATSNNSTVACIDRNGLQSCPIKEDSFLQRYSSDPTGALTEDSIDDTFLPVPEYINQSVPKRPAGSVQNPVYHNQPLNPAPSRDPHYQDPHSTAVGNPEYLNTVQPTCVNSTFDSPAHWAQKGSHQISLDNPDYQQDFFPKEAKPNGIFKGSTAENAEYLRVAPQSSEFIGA

Sequence of Epidermal growth factor receptor (Homo sapiens, UniProt P00533, L858R/T790M) (P00533 25-1210 T790M/L858R limits assumed): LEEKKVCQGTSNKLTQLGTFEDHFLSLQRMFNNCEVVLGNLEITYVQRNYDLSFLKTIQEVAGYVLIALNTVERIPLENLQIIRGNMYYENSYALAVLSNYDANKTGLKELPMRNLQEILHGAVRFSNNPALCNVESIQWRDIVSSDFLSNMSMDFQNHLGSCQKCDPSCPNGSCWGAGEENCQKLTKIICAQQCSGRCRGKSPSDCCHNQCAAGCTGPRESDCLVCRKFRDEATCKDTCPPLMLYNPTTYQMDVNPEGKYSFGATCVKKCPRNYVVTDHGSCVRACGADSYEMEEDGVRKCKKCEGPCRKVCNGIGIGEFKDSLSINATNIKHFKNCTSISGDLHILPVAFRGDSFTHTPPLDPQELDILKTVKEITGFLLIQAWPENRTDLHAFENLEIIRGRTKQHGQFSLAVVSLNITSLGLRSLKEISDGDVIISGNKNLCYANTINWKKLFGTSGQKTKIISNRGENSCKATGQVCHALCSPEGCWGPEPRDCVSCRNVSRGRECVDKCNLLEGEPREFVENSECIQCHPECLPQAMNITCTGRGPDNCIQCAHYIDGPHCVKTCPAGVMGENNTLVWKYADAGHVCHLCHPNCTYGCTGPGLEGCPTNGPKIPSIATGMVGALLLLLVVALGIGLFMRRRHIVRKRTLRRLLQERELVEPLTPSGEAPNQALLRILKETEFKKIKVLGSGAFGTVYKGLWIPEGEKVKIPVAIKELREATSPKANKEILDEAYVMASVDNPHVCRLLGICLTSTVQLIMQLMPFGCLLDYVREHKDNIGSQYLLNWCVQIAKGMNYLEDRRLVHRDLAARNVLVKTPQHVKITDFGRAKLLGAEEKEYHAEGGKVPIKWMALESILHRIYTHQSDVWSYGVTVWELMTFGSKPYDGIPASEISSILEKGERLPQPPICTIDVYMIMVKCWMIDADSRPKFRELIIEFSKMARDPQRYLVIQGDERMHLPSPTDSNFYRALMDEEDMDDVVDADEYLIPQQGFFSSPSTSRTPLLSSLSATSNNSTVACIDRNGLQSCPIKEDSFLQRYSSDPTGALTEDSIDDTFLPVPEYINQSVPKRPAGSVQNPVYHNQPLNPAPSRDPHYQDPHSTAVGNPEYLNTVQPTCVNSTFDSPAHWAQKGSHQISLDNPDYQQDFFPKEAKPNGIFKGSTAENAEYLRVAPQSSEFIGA

Row | IC50 (NCI-H1975) [nM] | IC50 (HCC827) [nM] | IC50 [5] [nM] | SMILES | IC50 at 72 h [1] [nM] | selectivity ratio [2] | selectivity ratio [3] | IC50 at 72 h [4] [nM] | IC50 [6] [nM]
1 | 25 | 11 | – | C=CC(=O)Nc1cccc(Nc2nc(Nc3ccc(N4CCN(CC)CC4)cc3)nc3ccc(F)cc23)c1 | 1520 | 60 | 62 | 1550 | –
2 | 2300 | – | 1800 | C=CC(=O)Nc1cccc(Nc2nc(Nc3ccc(N(C)C)cc3)nc3ccc(Cl)cc23)c1 | > 10000 | – | – | – | > 10000
3 | 17 | 13 | – | C=CC(=O)Nc1cccc(Nc2nc(Nc3ccc(N4CCN(C)CC4)cc3)nc3ccc(Cl)cc23)c1 | 816 | 48 | 73 | 1240 | –
4 | 231 | 221 | – | C/C=C/C(=O)Nc1cccc(Nc2nc(Nc3ccc(N4CCN(C)CC4)cc3)nc3ccc(Cl)cc23)c1 | 3650 | – | – | 4530 | –
5 | 2320 | 2320 | – | C=CC(=O)Nc1cccc(Nc2nc(Nc3ccc(N4CCN(C)CC4)cc3)nc3ccccc23)c1 | 9850 | – | – | 6790 | –
6 | 8650 | 7810 | – | C=CC(=O)Nc1cccc(Nc2nc(Nc3ccc(N4CCN(C)CC4)cc3)nc3c2CN(C(=O)OC(C)(C)C)CC3)c1 | > 10000 | – | – | > 10000 | –
7 | 8560 | 8860 | – | C=CC(=O)Nc1cccc(Nc2nc(Nc3ccc(N4CCOCC4)cc3)nc3ccc(Cl)cc23)c1 | > 10000 | – | – | > 10000 | –
8 | > 10000 | > 10000 | – | C=CC(=O)Nc1cccc(Nc2nc(Nc3ccc(N4CCN(C)CC4)cc3)nc3c2CCN(C(=O)OC(C)(C)C)C3)c1 | > 10000 | – | – | > 10000 | –
9 | 1980 | 1550 | – | C=CC(=O)Nc1cccc(Nc2nc(Nc3ccc(N4CCN(C)CC4)cc3)nc3ccc(C)cc23)c1 | 2310 | – | – | 1100 | –
10 | 28 | 25 | – | C=CC(=O)Nc1cccc(Nc2nc(Nc3ccc(N4CCC(N5CCN(C)CC5)CC4)cc3)nc3ccc(Cl)cc23)c1 | 2100 | – | – | 1620 | –
11 | 2430 | 1080 | – | C=CC(=O)Nc1cccc(Nc2nc(Nc3ccc(N4CCC(N(C)C)CC4)cc3OC)nc3ccc(F)cc23)c1 | > 10000 | – | – | > 10000 | –
12 | 174 | 65 | – | C=CC(=O)Nc1cccc(Nc2nc(Nc3ccc(N4CCC(N(C)C)CC4)cc3)nc3ccc(Cl)cc23)c1 | 1830 | – | – | 2020 | –
13 | 1090 | 1850 | – | C=CC(=O)Nc1cccc(Nc2nc(Nc3ccc(C4CCN(C)CC4)cc3)nc3ccc(F)cc23)c1 | 5860 | – | – | > 10000 | –
14 | 1600 | 2300 | – | C=CC(=O)Nc1cccc(Nc2nc(Nc3ccc(N4CCC(N5CCOCC5)CC4)cc3)nc3ccc(F)cc23)c1 | 5900 | – | – | 7590 | –
15 | 8750 | 6580 | – | C=CC(=O)Nc1cccc(Nc2nc(Nc3ccc(N(C)CCN(C)C)cc3OC)nc3ccc(F)cc23)c1 | > 10000 | – | – | > 10000 | –
16 | 4200 | 4230 | – | C=CC(=O)Nc1cccc(Nc2nc(Nc3ccc(N4CCN(C)CC4)cc3)nc3cc(OC)c(OC)cc23)c1 | > 10000 | – | – | > 10000 | –
17 | 21 | 12 | – | C=CC(=O)Nc1cccc(Nc2nc(Nc3ccc(N4CCN(CC)CC4)cc3)nc3ccc(Cl)cc23)c1 | 672 | 32 | 35 | 735 | –
18 | 7650 | 5720 | – | C=CC(=O)Nc1cccc(Nc2nc(Nc3ccc(N4CCC(N5CCOCC5)CC4)cc3)nc3ccc(Cl)cc23)c1 | > 10000 | – | – | > 10000 | –
